Values quoted from earlier work as cited in US5658892A, “Compound delivery using high-pressure impulse transients” (The General Hospital Corporation, priority 1995, dated 1997).

System: prostate tumors
Settings: rats, Holmes et al. 1990

## N.N.[Cl][Pt][Cl] [cisplatinum]
Combined with high-pressure, short-duration waves
  tumor growth: delayed tumor growth was achieved
Combined with shock wave therapy
  animal mortality (relative to cisplatinum alone): an increase in animal mortality
